According to patent US7547727B2, “Therapeutic cyclopentane derivatives” (Allergan, Inc., priority 2006, dated 2009):

Legend:
hEP3A/Gqi5 = molecular target: T1, hEP3A/Gqi5 (Homo sapiens, UniProt P43115); assay: FLIPR calcium signal, EP3; assay type: cell-based; conditions: HEK-293(EBNA) cells, read-out: Ca2+ Signal-EC50(nM) EP3
T1 construct: expressed in transfected cells; host or cells: HEK-293(EBNA)
T1 sequence (P43115 1-390): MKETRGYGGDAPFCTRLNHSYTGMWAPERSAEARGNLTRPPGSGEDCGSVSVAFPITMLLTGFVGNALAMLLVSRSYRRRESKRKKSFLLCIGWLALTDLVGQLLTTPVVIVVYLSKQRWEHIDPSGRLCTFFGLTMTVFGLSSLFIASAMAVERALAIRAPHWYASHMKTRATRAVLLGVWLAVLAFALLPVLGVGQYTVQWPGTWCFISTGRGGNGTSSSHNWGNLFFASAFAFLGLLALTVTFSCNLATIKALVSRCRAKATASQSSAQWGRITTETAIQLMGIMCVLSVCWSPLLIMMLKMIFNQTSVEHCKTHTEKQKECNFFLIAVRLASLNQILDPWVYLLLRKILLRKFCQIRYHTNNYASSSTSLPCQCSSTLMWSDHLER
Experimental: (§1) HEK-293(EBNA) cells, stably expressing one type or subtype of recombinant human prostaglandin receptors (prostaglandin receptors expressed: hDP/Gqs5; hEP1; hEP2/Gqs5; hEP3A/Gqi5; hEP4/Gqs5; hFP; hIP; hTP), were cultured in 100 mm culture dishes in high-glucose DMEM medium containing 10% fetal bovine serum, 2 mM I-glutamine, 250 μg/ml geneticin (G418) and 200 μg/ml hygromycin B as selection markers, and 100 units/ml penicillin G, 100 μg/ml streptomycin and 0.25 μg/ml amphotericin B.
(§2) Cells were seeded at a density of 5×10^4 cells per well in Biocoat® Poly-D-lysine-coated black-wall, clear-bottom 96-well plates (Becton-Dickinson) and allowed to attach overnight in an incubator at 37° C. Cells were then washed two times with HBSS-HEPES buffer (Hanks Balanced Salt Solution without bicarbonate and phenol red, 20 mM HEPES, pH 7.4) using a Denley Cellwash plate washer (Labsystems). […]
(§3) Cells were excited with an Argon laser at 488 nm, and emission was measured through a 510-570 nm bandwidth emission filter (FLIPR™, Molecular Devices, Sunnyvale, Calif.). […] The peak increase in fluorescence intensity was recorded for each well. […] The peak fluorescence change in each drug-containing well was then expressed relative to the controls. […]

hEP1 = molecular target: T2, hEP1 (Homo sapiens, UniProt P34995); assay: FLIPR calcium signal, EP1; assay type: cell-based; conditions: HEK-293(EBNA) cells
T2 construct: expressed in transfected cells; host or cells: HEK-293(EBNA)
T2 sequence (P34995 1-402): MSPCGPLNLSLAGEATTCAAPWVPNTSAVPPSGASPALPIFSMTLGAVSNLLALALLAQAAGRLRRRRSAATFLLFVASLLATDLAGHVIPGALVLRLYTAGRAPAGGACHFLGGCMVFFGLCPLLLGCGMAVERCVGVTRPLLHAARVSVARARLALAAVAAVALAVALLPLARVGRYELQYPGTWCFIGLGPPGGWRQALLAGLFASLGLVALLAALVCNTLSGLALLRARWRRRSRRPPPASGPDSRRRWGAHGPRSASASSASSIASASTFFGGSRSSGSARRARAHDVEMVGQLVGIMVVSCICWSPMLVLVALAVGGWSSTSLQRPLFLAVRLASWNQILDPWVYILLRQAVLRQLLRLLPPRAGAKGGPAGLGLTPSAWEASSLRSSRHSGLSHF
Experimental: as §1, §2, §3

hEP2/Gqs5 = molecular target: T3, hEP2/Gqs5 (Homo sapiens, UniProt P43116); assay: FLIPR calcium signal, EP2; assay type: cell-based; conditions: HEK-293(EBNA) cells, read-out: Ca2+ Signal-EC50(nM) EP2
T3 construct: expressed in transfected cells; host or cells: HEK-293(EBNA)
Experimental: as §1, §2, §3

hTP = molecular target: T4, hTP (Homo sapiens, UniProt P21731); assay: FLIPR calcium signal, TP; assay type: cell-based; conditions: HEK-293(EBNA) cells
T4 construct: expressed in transfected cells; host or cells: HEK-293(EBNA)
T4 sequence (P21731 1-343): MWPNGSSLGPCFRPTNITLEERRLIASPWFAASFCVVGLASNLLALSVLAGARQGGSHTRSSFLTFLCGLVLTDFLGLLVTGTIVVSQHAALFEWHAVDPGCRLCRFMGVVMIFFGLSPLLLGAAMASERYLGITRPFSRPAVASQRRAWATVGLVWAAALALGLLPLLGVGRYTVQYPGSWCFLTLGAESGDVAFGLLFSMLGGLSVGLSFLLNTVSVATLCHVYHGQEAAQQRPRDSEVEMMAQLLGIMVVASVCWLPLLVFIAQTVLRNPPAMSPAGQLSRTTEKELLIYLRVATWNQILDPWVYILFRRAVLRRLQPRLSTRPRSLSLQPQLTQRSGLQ
Experimental: as §1, §2, §3

EP4 receptors = molecular target: T5, EP4 receptors (Homo sapiens, UniProt P35408); assay: Radioligand binding, EP4; conditions: HEK-293 cells stably expressing EP4 receptors, [3H]PGE2
T5 construct: expressed in transfected cells; host or cells: HEK-293 (plasma membrane fraction)
Experimental: HEK-293 cells stably expressing the human or feline FP receptor, or EP1, EP2, or EP4 receptors were washed with TME buffer, scraped from the bottom of the flasks, and homogenized for 30 sec using a Brinkman PT 10/35 polytron. TME buffer was added to achieve a final 40 ml volume in the centrifuge tubes (the composition of TME is 100 mM TRIS base, 20 mM MgCl2, […]; 10N HCl is added to achieve a pH of 7.4).
The cell homogenate was centrifuged at 19000 r.p.m. for 20 min at 4° C. using a Beckman Ti-60 rotor. The resultant pellet was resuspended in TME buffer to give a final 1 mg/ml protein concentration, as determined by Biorad assay. Radioligand binding competition assays vs. [^3H-]17-phenyl PGF2α (5 nM) were performed in a 100 μl volume for 60 min. Binding reactions were started by adding plasma membrane fraction. The reaction was terminated by the addition of 4 ml ice-cold TRIS-HCl buffer and rapid filtration through glass fiber GF/B filters using a Brandel cell harvester. The filters were washed 3 times with ice-cold buffer and oven dried for one hour.
[^3H-] PGE2 (specific activity 180 Ci mmol) was used as the radioligand for EP receptors. [^3H] 17-phenyl PGF2α was employed for FP receptor binding studies. […] 17-phenyl PGF2α and non-specific binding determined with 10^−5M of unlabeled PGE2, or 17-phenyl PGF2α, according to receptor subtype studied.

hEP4/Gqs5 = molecular target: T6, hEP4/Gqs5 (Homo sapiens, UniProt P35408); assay: FLIPR calcium signal, EP4; assay type: cell-based; conditions: HEK-293(EBNA) cells
T6 construct: expressed in transfected cells; host or cells: HEK-293(EBNA)
Experimental: as §1, §2, §3

hFP = molecular target: T7, hFP (Homo sapiens, UniProt P43088); assay: FLIPR calcium signal, FP; assay type: cell-based; conditions: HEK-293(EBNA) cells
T7 construct: expressed in transfected cells; host or cells: HEK-293(EBNA)
Experimental: as §1, §2, §3

hIP = molecular target: T8, hIP (Homo sapiens, UniProt P43119); assay: FLIPR calcium signal, IP; assay type: cell-based; conditions: HEK-293(EBNA) cells
T8 construct: expressed in transfected cells; host or cells: HEK-293(EBNA)
Experimental: as §1, §2, §3

human EP2 receptors = molecular target: T9, human EP2 receptors (Homo sapiens, UniProt P43116); assay: Competition radioligand binding, EP2; conditions: HEK 293 cells stably expressing human EP2 receptors, [3H]PGE2
T9 construct: expressed in transfected cells; host or cells: HEK 293 (membranes or whole cells)
Experimental: Competition binding experiments were performed in a medium containing Hank's balanced salt solution, Hepes 20 mM, pH 7.3, membranes (˜60 μg protein) or 2×10^5 cells from HEK 293 cells stably expressing human EP2 receptors, [^3H]PGE2 (10 nM) and various concentrations of test compounds in a total volume of 300 μl. Reaction mixtures were incubated at 23° C. for 60 min, and were filtered over Whatman GF/B filters under vacuum. Filters were washed three times with 5 ml ice-cold buffer containing 50 mM Tris/HCl (pH 7.3). Non-specific binding was estimated in the presence of excess unlabeled PGE2 (10 μM). Binding data fitted to the binding model for a single class of binding sites, using nonlinear regression analysis. IC50 values thus obtained were converted to Ki using the equation of Ki=(IC50/(1+[L]/KD) where [L] represents PGE2 concentration (10 nM) and KD the dissociation constant for [^3H]PGE2 at human EP2 receptors (40 nM). […]
The cell homogenate was centrifuged at 19000 r.p.m. for 20 min at 4° C. using a Beckman Ti-60 rotor. The resultant pellet was resuspended in TME buffer to give a final 1 mg/ml protein concentration, as determined by Biorad assay. […]
[^3H-] […] 17-phenyl PGF2α and non-specific binding determined with 10^−5M of unlabeled PGE2, or 17-phenyl PGF2α, according to receptor subtype studied.

hDP/Gqs5 = molecular target: T10, hDP/Gqs5 (Homo sapiens, UniProt Q13258); assay: FLIPR calcium signal, DP; assay type: cell-based; conditions: HEK-293(EBNA) cells
T10 construct: expressed in transfected cells; host or cells: HEK-293(EBNA)
T10 sequence (Q13258 1-359): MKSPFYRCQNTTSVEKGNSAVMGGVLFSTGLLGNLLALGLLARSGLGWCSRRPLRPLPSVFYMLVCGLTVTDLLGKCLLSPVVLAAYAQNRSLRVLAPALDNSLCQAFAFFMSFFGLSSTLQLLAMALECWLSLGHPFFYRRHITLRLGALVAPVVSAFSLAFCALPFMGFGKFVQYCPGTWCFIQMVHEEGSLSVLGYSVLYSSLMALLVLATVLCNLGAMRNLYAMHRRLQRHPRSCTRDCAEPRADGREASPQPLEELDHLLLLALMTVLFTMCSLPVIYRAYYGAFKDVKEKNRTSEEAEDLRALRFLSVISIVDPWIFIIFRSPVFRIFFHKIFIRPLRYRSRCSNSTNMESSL
Experimental: as §1, §2, §3

T7 sequence (P43088 whole entry): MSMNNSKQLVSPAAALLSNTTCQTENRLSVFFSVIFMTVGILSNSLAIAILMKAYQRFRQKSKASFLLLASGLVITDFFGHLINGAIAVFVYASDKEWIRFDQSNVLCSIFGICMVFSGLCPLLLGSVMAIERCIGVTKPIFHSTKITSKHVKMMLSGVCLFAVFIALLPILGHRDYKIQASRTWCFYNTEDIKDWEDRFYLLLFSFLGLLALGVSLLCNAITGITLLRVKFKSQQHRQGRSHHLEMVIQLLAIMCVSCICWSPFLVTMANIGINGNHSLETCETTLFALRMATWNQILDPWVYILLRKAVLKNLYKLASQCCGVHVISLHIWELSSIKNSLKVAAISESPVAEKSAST
T6 sequence (P35408 whole entry): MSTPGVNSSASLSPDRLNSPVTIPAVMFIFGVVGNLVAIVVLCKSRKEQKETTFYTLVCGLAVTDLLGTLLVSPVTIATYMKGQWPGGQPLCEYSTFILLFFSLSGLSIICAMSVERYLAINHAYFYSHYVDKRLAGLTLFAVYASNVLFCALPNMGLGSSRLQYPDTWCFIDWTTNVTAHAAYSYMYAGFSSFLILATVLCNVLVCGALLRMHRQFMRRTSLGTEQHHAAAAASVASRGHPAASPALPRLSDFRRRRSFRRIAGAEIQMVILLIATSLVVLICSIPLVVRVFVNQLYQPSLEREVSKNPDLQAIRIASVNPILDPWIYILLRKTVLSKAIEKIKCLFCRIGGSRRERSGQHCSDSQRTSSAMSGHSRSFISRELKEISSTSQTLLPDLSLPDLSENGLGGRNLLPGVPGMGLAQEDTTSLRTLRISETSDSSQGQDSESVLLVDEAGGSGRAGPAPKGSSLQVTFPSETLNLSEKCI
T5 sequence (P35408 whole entry): as above
T8 sequence (P43119 whole entry): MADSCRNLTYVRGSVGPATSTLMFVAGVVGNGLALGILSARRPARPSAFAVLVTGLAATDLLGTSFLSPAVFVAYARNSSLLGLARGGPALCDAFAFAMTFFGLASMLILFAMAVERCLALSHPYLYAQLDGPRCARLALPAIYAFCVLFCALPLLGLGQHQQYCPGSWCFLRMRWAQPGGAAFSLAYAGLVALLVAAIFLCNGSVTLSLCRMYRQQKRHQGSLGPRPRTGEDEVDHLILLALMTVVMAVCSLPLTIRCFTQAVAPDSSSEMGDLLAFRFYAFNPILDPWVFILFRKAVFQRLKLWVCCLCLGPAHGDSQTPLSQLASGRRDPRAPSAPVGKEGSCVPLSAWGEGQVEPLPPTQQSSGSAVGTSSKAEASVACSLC
T3 sequence (P43116 whole entry): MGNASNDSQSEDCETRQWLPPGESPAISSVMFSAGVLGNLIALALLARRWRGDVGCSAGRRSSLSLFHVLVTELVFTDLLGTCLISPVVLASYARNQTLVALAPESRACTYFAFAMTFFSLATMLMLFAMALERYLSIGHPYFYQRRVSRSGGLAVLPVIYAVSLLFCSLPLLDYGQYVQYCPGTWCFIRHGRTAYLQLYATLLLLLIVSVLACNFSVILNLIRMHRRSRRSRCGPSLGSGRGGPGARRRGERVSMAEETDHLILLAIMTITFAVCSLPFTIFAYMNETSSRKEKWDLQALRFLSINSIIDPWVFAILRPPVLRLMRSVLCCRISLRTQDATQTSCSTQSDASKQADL
T9 sequence (P43116 whole entry): as above

EC50 (hEP3A/Gqi5): 10000 nM
Ca2+ Signal-EC50(nM) EP1 (hEP1): not active
EC50 (hEP2/Gqs5): 34 nM
Ca2+ Signal-EC50(nM) TP (hTP): not active
Ki (EP4 receptors): > 10000 nM
Ca2+ Signal-EC50(nM) EP4 (hEP4/Gqs5): not active
Ca2+ Signal-EC50(nM) FP (hFP): not active
Ca2+ Signal-EC50(nM) IP (hIP): not active
Ki (human EP2 receptors): 1250 nM
Ca2+ Signal-EC50(nM) DP (hDP/Gqs5): not active
SMILES: CCCCCC(O)c1ccc([C@@H]2[C@@H](C/C=C\CCCC(=O)O)[C@H](C#N)C[C@H]2O)cc1 (stereo partly drawn) [(Z)-7-{(1S,2S,3R,5R)-5-Cyano-3-hydroxy-2-[4-(1-hydroxy-hexyl)-phenyl]-cyclopentyl}-hept-5-enoic acid]
